Measurements reported in patent US20210008206A1, “ADENOSINE PATHWAY INHIBITORS FOR CANCER TREATMENT” (Corvus Pharmaceuticals, Inc., priority 2017, published 2021).

Experiments:
[1] = tested on: patients with advanced cancers; assay: Phase 1/1b clinical trial, tumor response by baseline biomarker level; assay type: in vivo, human; conditions: for Objective response rate / Disease control rate: 100 mg orally twice a day, 28 days
Experimental: FIG. 3 is a graph showing tumor response to treatment with the compound of Formula (III) in patients expressing low levels of adenosine A2A receptors and patients expressing high levels of adenosine A2A receptors. RNA was extracted from pre-treatment tumor samples, and Nanostring was performed to arrive at the values described herein. The disease control rate was 0 of 11 patients who expressed low levels of adenosine A2A receptors, and was 9 of 26 patients who expressed high levels of adenosine A2A receptors. The objective response rate was 0 of II patients who expressed low levels of adenosine A2A receptors, and 1 of 26 patients who expressed high levels of adenosine A2A receptors.
FIG. 4 is a graph showing tumor response to treatment with the compound of Formula (III) in patients expressing low levels of CD73 and patients expressing high levels of CD73. RNA was extracted from pre-treatment tumor samples, and Nanostring was performed to arrive at the values described herein. The disease control rate was 1 of 9 patients who expressed low levels of CD73, and was 8 of 28 patients who expressed high levels of CD73. The objective response rate was 0 of 9 patients who expressed low levels of CD73, and was 1 of 28 patients who expressed high levels of CD73.
FIG. 5 is a graph showing tumor response to treatment with the compound of Formula (III) in patients expressing low levels of adenosine A2A receptors and/or CD73 and patients expressing high levels of both adenosine A2A receptors and CD73. RNA was extracted from pre-treatment tumor samples, and Nanostring was performed to arrive at the values described herein. The disease control rate was 8 of 21 patients who expressed low levels of adenosine A2A receptors and/or CD73, and was 1 of 16 patients who expressed high levels of both adenosine A2A receptors and CD73. The objective response rate was 1 of 21 patients who expressed low levels of adenosine A2A receptors and/or CD73, and was 0 of 16 patients who expressed high levels of both adenosine A2A receptors and CD73.
FIG. 6 is a graph showing tumor response to treatment with the compound of Formula (III) in patients expressing low levels of PD-L1 mRNA and patients expressing high levels of PD-L1 mRNA. RNA was extracted from pre-treatment tumor samples, and Nanostring was performed to arrive at the values described herein. The disease control rate was 3 of 17 patients who expressed low levels of PD-L1 mRNA, and was 6 of 20 patients who expressed high levels of PD-L1 mRNA. The objective response rate was 0 of 17 patients who expressed low levels of PD-L1 mRNA, and was 1 of 20 patients who expressed high levels of PD-L1 mRNA.
FIG. 7 is a graph showing tumor response to treatment with the compound of Formula (III) in patients having low levels of PD-L1 and patients having high levels of PD-L1. PD-L1 staining on immune cells was determined by immunohistochemistry using the SP142 antibody that detects PD-L1. The disease control rate was 7 of 24 patients who expressed low levels of PD-L1, and was 2 of 13 patients who expressed high levels of PD-L1. The objective response rate was 0 of 24 patients who expressed low levels of PD-L1, and was 1 of 13 patients who expressed high levels of PD-L1.
“Objective response rate” refers to the patients that had greater than 30% reduction in the sum of the longest dimensions of their assessed target tumor lesions.
The compound of Formula (III) is being investigated in an ongoing Phase 1/1b clinical trial in patients with advanced cancers (NCT02655822 at www.clinicaltrials.gov). Biomarker investigations were conducted to explore immune modulation in serial tumor biopsies and peripheral blood as well associations between adenosine pathway genes and clinical activity. […]

tumor biopsies = assay: On-treatment vs pre-treatment tumor biopsies, IHC and Nanostring gene expression; assay type: in vivo, human; conditions: on-treatment biopsies compared to pre-treatment biopsies
Excerpt: FIGS. 8A-8H show log2-fold changes in immunohistochemistry and gene expression (i.e., mRNA) by Nanostring on on-treatment biopsies compared to pre-treatment biopsies and identifies pharmacodynamics changes that are observed in CD73-high tumors treated with a compound of Formula (III). FIG. 8A compares CD8 infiltration, measured by IHC, in patients expressing low levels and high levels of CD73 (where the p=0.005) after treatment with the compound of Formula (III). FIG. 8B compares PD-L1 inflammation infiltration, measured by IHC, in patients expressing low levels and high levels of CD73 (p=0.15) after treatment with the compound of Formula (III). FIG. 8C compares CXCL9 (chemokine C-X-C motif ligand 9) gene expression in patients expressing low levels and high levels of CD73 (p=0.02) after treatment with the compound of Formula (III). […]
The patients were orally administered the compound of Formula (III) at a dose of 100 mg, twice a day, for twenty-eight days. Tumor biopsies and blood samples were analyzed from patients with renal cell carcinoma, non-small cell lung cancer, triple negative breast cancer, microsatellite instable colorectal cancer treated with the compound of Formula (III). Paired tumor biopsies were analyzed: gene expression profiles (Nanostring), CD8, PD-L1 and CD73 (IHC). […]

T cell function = assay: Suppression of T cell function by adenosine; assay type: cell-based
[2] = patients expressing high levels of both adenosine A2A receptors and CD73
[3] = patients expressing low levels of adenosine A2A receptors and/or CD73

SMILES: Cc1ccc(-c2nc(N)nc3c2nnn3Cc2cccc(COC3CCOC3)n2)o1 (centres unmarked) [compound of Formula (III)]
- Objective response rate ([1]; patients expressing high levels of CD73): 1 of 28
- Disease control rate ([1]; patients expressing high levels of CD73 (Nanostring)): 8 of 28
- Objective response rate ([1]; patients expressing high levels of PD-L1 mRNA): 1 of 20
- Disease control rate ([1]; patients expressing high levels of PD-L1 mRNA (Nanostring)): 6 of 20
- Objective response rate ([1]; patients expressing high levels of adenosine A2A receptors): 1 of 26
- Disease control rate ([1]; patients expressing high levels of adenosine A2A receptors (Nanostring, pre-treatment tumor)): 9 of 26
- Disease control rate [1, 2]: 1 of 16
- Objective response rate [1, 2]: 0 of 16
- Objective response rate ([1]; patients expressing low levels of CD73): 0 of 9
- Disease control rate ([1]; patients expressing low levels of CD73 (Nanostring)): 1 of 9
- Objective response rate ([1]; patients expressing low levels of PD-L1 mRNA): 0 of 17
- Disease control rate ([1]; patients expressing low levels of PD-L1 mRNA (Nanostring)): 3 of 17
- Disease control rate ([1]; patients expressing low levels of adenosine A2A receptors (Nanostring, pre-treatment tumor)): 0 of 11
- Disease control rate [1, 3]: 8 of 21
- Objective response rate [1, 3]: 1 of 21
- Disease control rate ([1]; patients with high levels of PD-L1 (IHC on immune cells, SP142 antibody, ≥1%)): 2 of 13
- Objective response rate ([1]; patients with high levels of PD-L1 (IHC, SP142)): 1 of 13
- Disease control rate ([1]; patients with low levels of PD-L1 (IHC on immune cells, SP142 antibody, <1%)): 7 of 24
- Objective response rate ([1]; patients with low levels of PD-L1 (IHC, SP142)): 0 of 24
- Tumor regression ([1]; patients with elevated expression of adenosine A2A receptor genes, CD73 and PD-L1 in baseline tumor samples compared to patients having low expression): significant tumor regression
- Pharmacodynamics changes in IHC and gene expression (tumor biopsies): observed only in CD73-high tumors
- Effect on suppression of T cell function by adenosine (T cell function): inhibits suppression of T cell function by adenosine
- Activity in preclinical models (Preclinical models): active in multiple preclinical models
